Data on three compounds can be found in patent US20170072005A1, “COMBINATIONS OF NMDAR MODULATING COMPOUNDS” (NORTHWESTERN UNIVERSITY, priority 2014, published 2017).

Entries after “also recorded” stand apart in the source; their conditions may differ. Peptide text beside a SMILES is read from it.

Common to all, as to assay type: in vivo
Series [1] has as its system adult male C57BL/6 male mice. Put plainly: Novel object recognition test (NOR), discrimination index. How it is done: The discrimination index is calculated using the following formula: (time spent exploring novel object−time spent exploring familiar object)/(total time spent in exploring both the novel and familiar objects).
Novel Object recognition Test (“NOR”) testing in mice was adapted from (Hashimoto K, Fujita Y, Shimizu E, Iyo M (2005). Phencyclidine-induced cognitive deficits in mice are improved by subsequent subchronic administration of clozapine, but not haloperidol. European journal of pharmacology 519(1-2): 114-117). See also, e.g., Rajagopal, et al., Current Pharmaceutical Design 2014, 20, 1. The NOR box is an open box made out of Plexiglas (52 cm L; 52 cm W; 31 cm H). The dimensions of the box we used for mice was identical to the one used for rats. The box was positioned approximately 30 cm above the floor. The walls of the box have white background, as opposed to the black background in the rat NOR studies. […] Three days prior to testing, mice were habituated to the empty NOR arena for an hour. The NOR test in mice is similar to that previously employed to study rat NOR except that the acquisition and retention trials were 10 min in duration, followed by an intertrial interval (ITI) of 24 hours during which the mice were returned to their home cages, whereas in rats, the acquisition and retention trials were three min in duration separated by a one min ITI (Horiguchi M, Meltzer HY (2012). The role of 5-HT1A receptors in phencyclidine (PCP)-induced novel object recognition (NOR) deficit in rats. Psychopharmacology 221(2): 205-215). We compared 3, 5, and 10 min times for acquisition and retention trial explorations and found 10 minutes to be optimal for reliable data collection. Both trials were recorded for blind scoring later on.
All data are expressed as mean±S.E.M. Exploration data were analysed by a two-way analysis of variance (ANOVA). This detected the main effect of drug treatment, the main effect of task, and the interaction between drug treatment and object exploration. When a significant effect was found, further analysis by a post hoc Student's t-test was performed to compare the times spent exploring the novel and familiar object. The primary endpoint was the discrimination index (DI). The DI (novel-familiar/novel+familiar) data were analysed using one-way ANOVA followed by the Bonferroni test when a significant effect was detected by the ANOVA.

Series [2] concerns 2-3 month old male Sprague Dawley rats. Put plainly: Stereotypy behaviour (circling and head weaving) in the open field. How it is done: Vehicle treated animals received saline vehicle injections instead of GLYX-13 and ketamine injections. Animals were placed into the open field immediately after the final dose, and behaviour was analysed for 20 min. N=8-12.
The subject of a further series is somatosensory cortex. Put plainly: Attenuation in somatosensory cortex with GLYX-13 pre-treatment followed by ketamine (FIG. 4).

Regarding `CNC1(c2ccccc2Cl)CCCCC1=O` (stereo not shown) [ketamine, reference compound], the “Discrimination index (DI) in novel object recognition, effect of acute ketamine” value in series [1] (ketamine 10 mg/kg sc, tested 20 min later, p<0.0001 vs vehicle group) is given as “significant decrease in DI compared with the vehicle group”. Besides, the “Discrimination index (DI) in novel object recognition, effect of chronic ketamine” value in series [1] (ketamine 30 mg/kg IP twice daily for 7 days, then saline vehicle 1 hr before testing, p<0.001 vs vehicle group) is reported as “significant decrease in DI compared with the vehicle group”. In series [2] (ketamine 10 mg/kg iv, open field, 20 min), the “Number of stereotypy behaviour (circling and head weaving), effect of ketamine” value is given as “induced stereotypy”.

Regarding `CC(O)C(N)C(=O)N1CCCC1C(=O)N1CCCC1C(=O)NC(C(N)=O)C(C)O` (stereo not shown) [GLYX-13] (H-TPPT-NH2; configuration not given here), the “Attenuation in somatosensory cortex” value in the series on somatosensory cortex (pre-treatment with 3 mpk GLYX-13 followed by ketamine) and with somatosensory cortex (pre-treatment with 30 mpk GLYX-13 followed by ketamine) was “significant attenuation” in each case. Further, the “Discrimination index (DI) in novel object recognition, reversal of acute ketamine-induced impairment” value in series [1] (GLYX-13 3 mg/kg iv 30 min before ketamine 10 mg/kg sc, tested 20 min later, p<0.01 vs ketamine group) was “reverses acute ketamine (10 mg/kg sc) induced impairment in novel object recognition; also recorded: significant reversal in DI compared with ketamine group”. The “Discrimination index (DI) in novel object recognition, reversal of chronic ketamine-induced impairment” value in series [1] (mice pre-treated with ketamine 30 mg/kg IP twice daily for 7 days, GLYX-13 1 mg/kg IV 1 hr before testing, p<0.001 vs ketamine group) is “reverses chronic ketamine-induced impairment in novel object recognition; also recorded: significant reversal in DI compared with ketamine group”. In addition, the “Discrimination index (DI) in novel object recognition, reversal of chronic PCP-induced impairment” value in series [1] (mice pretreated with PCP 10 mg/kg IP twice daily for 7 days, GLYX-13 1 mg/kg IV 1 hr before testing, p<0.001 vs PCP group) was “reverses chronic phencyclidine-induced impairment in novel object recognition; also recorded: significant reversal in DI compared with PCP group”. The “Number of stereotypy behaviour (circling and head weaving), inhibition of ketamine-induced stereotypy” value in series [2] (GLYX-13 3 mg/kg iv 30 min before ketamine 10 mg/kg iv, behaviour analysed for 20 min) is listed as “inhibits ketamine (10 mg/kg iv) induced stereotypy”.

Regarding `c1ccc(C2(N3CCCCC3)CCCCC2)cc1` [PCP, phencyclidine, reference compound], the “Discrimination index (DI) in novel object recognition, effect of chronic PCP” value in series [1] (PCP 10 mg/kg IP twice daily for 7 days, then saline vehicle 1 hr before testing, p<0.001 vs vehicle group) is “significant decrease in DI compared with the vehicle group”.
